Patent publication US20220062240A1, “METHODS OF TREATING CANCER USING A CLK INHIBITOR” (BioSplice Therapeutics, Inc., priority 2018, published 2022)
Read-outs that look alike come from different tables or passages of the source.

Tests used:
[1] = test system: all 50 cell lines; test: CellTiter-Glo Viability Assay, average across all cell lines; assay type: cell-based; conditions: Homo sapiens; across all 50 cell lines; read-out: average EC50 for inhibition of cancer cell proliferation
Description: (§1) Fifty-one human cancer cell lines (breast cancer (8 cell lines), colorectal cancer (6 cell lines), haematopoietic & lymphoid tumors (13 cell lines), liver cancer (3 cell lines), lung cancer (4 cell lines), ovarian cancer (4 cell lines), pancreatic cancer (8 cell lines), and prostate cancer (5 cell lines)) were tested to determine the effects of representative compounds of Formulas (I)-(XII) on cellular proliferation, as evaluated using the CellTiter-Glo® Viability Assay.
(§2) For the Cell Viability Assays, cells were plated at 300-3,000 cells/well in 384-well plates in their respective media containing 1% Penicillin-Streptomycin and incubated for four days at 37° C. and 5% CO2. Twenty-eight replicates of DMSO-treated cells served as controls and cells treated with compound were performed in duplicate.
(§3) After incubation, 10 μL of CellTiter-Glo® (Promega) was added to each well allowed to incubate for approximately 12 minutes. This reagent results in cell lysis and generation of a luminescent signal proportional to the amount of ATP present. The amount of ATP is directly proportional to the number of metabolically active, viable cells present in culture. The CellTiter-Glo® Assay generates a luminescent signal, produced by the luciferase reaction (Promega.com).
(§4) After incubation, the luminescence signal was read using an EnVision™ Multilabel Plate Reader (Perkin Elmer). Dose-response curves were generated and EC50 concentration values were calculated using Dotmatics' Studies Software (Bishops Stortford, UK).

[2] = biological target: CLK3 (Homo sapiens, UniProt P49761); test: CLK3 kinase activity assay (Z-lyte, Ser/Thr 18 peptide)
Sequence of CLK3 (P49761 whole entry): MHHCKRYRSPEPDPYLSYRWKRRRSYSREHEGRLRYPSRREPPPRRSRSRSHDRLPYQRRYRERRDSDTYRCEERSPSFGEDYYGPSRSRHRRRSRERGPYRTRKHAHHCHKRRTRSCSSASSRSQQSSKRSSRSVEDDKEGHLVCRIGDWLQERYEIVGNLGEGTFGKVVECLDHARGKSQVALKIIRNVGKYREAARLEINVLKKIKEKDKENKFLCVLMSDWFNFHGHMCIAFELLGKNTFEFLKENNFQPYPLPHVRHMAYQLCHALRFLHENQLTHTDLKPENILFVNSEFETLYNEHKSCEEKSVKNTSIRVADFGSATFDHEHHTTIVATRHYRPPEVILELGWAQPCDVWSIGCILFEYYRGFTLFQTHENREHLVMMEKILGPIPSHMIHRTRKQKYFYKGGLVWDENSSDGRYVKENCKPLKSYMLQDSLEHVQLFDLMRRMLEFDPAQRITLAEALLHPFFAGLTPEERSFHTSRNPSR

[3] = test system: haematopoietic & lymphoid tumors (13 cell lines); test: CellTiter-Glo Viability Assay, haematopoietic & lymphoid tumors; assay type: cell-based; conditions: Homo sapiens, inhibition of cancer cell proliferation
Description: as §1, §2, §3, §4

[4] = test system: prostate cancer (5 cell lines); test: CellTiter-Glo Viability Assay, prostate cancer; assay type: cell-based; conditions: Homo sapiens
Description: as §1, §2, §3, §4

[5] = test system: lung cancer (4 cell lines); test: CellTiter-Glo Viability Assay, lung cancer; assay type: cell-based; conditions: Homo sapiens, inhibition of cancer cell proliferation
Description: as §1, §2, §3, §4

[6] = test system: ovarian cancer (4 cell lines); test: CellTiter-Glo Viability Assay, ovarian cancer; assay type: cell-based; conditions: Homo sapiens, inhibition of cancer cell proliferation
Description: as §1, §2, §3, §4

[7] = test system: pancreatic cancer (8 cell lines); test: CellTiter-Glo Viability Assay, pancreatic cancer; assay type: cell-based; conditions: Homo sapiens, inhibition of cancer cell proliferation
Description: as §1, §2, §3, §4

[8] = biological target: T1, CLK2 (Homo sapiens, UniProt P49760); test: CLK2 kinase activity assay (Z-lyte, Ser/Thr 6 peptide); assay type: biochemical; conditions: recombinant CLK2 kinase, ATP 60 μM; read-out: EC50
T1 construct: purchased Thermo Fisher (Life Technologies), Z'-LYTE Kinase Assay Kits
T1 sequence (P49760 whole entry): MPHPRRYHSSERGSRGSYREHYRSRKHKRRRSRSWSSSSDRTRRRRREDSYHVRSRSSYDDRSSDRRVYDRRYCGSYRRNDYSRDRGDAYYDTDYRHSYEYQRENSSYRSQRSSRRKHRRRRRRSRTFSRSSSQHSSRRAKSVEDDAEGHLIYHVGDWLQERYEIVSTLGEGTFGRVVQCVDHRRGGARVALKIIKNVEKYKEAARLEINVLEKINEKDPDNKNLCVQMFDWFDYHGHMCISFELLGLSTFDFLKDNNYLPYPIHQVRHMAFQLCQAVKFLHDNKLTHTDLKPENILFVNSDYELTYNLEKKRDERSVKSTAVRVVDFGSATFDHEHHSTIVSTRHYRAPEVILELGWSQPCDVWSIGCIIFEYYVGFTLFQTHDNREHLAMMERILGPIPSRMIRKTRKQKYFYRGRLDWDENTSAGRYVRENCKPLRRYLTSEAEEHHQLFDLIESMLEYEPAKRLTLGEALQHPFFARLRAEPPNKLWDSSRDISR
Description: All reactions were performed in duplicate.

[9] = test system: colorectal cancer (6 cell lines); test: CellTiter-Glo Viability Assay, colorectal cancer; assay type: cell-based; conditions: Homo sapiens, inhibition of cancer cell proliferation
Description: as §1, §2, §3, §4

[10] = test system: liver cancer (3 cell lines); test: CellTiter-Glo Viability Assay, liver cancer; assay type: cell-based; conditions: Homo sapiens, inhibition of cancer cell proliferation
Description: as §1, §2, §3, §4

[11] = test system: HCC1599; test: CellTiter-Glo Viability Assay, breast cancer; assay type: cell-based; conditions: Homo sapiens, 96 h; HCC1599, breast cancer, four days; read-out: EC50
Description: as §1, §2, §3, §4

[12] = test system: MDA-MB-231-Luc; test: CellTiter-Glo Viability Assay, breast cancer; assay type: cell-based; conditions: Homo sapiens, 96 h; MDA-MB-231-Luc, breast cancer, four days; read-out: EC50
Description: as §1, §2, §3, §4

[13] = test system: CAMA1; test: CellTiter-Glo Viability Assay, breast cancer; assay type: cell-based; conditions: Homo sapiens, CAMA-1, 96 h; CAMA1, breast cancer, four days; read-out: EC50
Description: as §1, §2, §3, §4

[14] = test system: BT-549; test: CellTiter-Glo Viability Assay, breast cancer; assay type: cell-based; conditions: Homo sapiens, 96 h; BT-549, breast cancer, four days; read-out: EC50
Description: as §1, §2, §3, §4

[15] = test system: MCF7; test: CellTiter-Glo Viability Assay, breast cancer; assay type: cell-based; conditions: Homo sapiens, 96 h; MCF7, breast cancer, four days; read-out: EC50
Description: as §1, §2, §3, §4

[16] = test system: T47D; test: CellTiter-Glo Viability Assay, breast cancer; assay type: cell-based; conditions: Homo sapiens, 96 h, breast cancer, four days, read-out: EC50
Description: as §1, §2, §3, §4

[17] = test system: DU4475; test: CellTiter-Glo Viability Assay, breast cancer; assay type: cell-based; conditions: Homo sapiens, DU-4475, 96 h; DU4475, breast cancer, four days; read-out: EC50
Description: as §1, §2, §3, §4

EC50 [2]: 27.2 nM | EC50 ([3]; DND41, DND-41 cell line, read-out: Haematopoietic & Lymphoid tumors, EC50 (μM) DND-41): 0.914 µM | EC50 ([3]; MV4-11, MV-4-11 cell line, read-out: Haematopoietic & Lymphoid tumors, EC50 (μM) MV-4-11): 0.316 µM | EC50 ([3]; Rec1, REC-1 cell line, read-out: Haematopoietic & Lymphoid tumors, EC50 (μM) REC-1): 0.23 µM | EC50 ([3]; SU-DHL-4, SUDHL4 cell line, read-out: Haematopoietic & Lymphoid tumors, EC50 (μM) SUDHL4): 0.972 µM | EC50 ([3]; HL-60 cell line, read-out: Haematopoietic & Lymphoid tumors, EC50 (μM) HL-60): 2.59 µM | EC50 ([3]; JM1 cell line, read-out: Haematopoietic & Lymphoid tumors, EC50 (μM) JM1): 0.216 µM | EC50 ([3]; JURKAT, Clone E6-1 cell line, read-out: Haematopoietic & Lymphoid tumors, EC50 (μM) JURKAT, Clone E6-1): 1.62 µM | EC50 ([3]; JeKo-1 cell line, read-out: Haematopoietic & Lymphoid tumors, EC50 (μM) JeKo-1): 0.319 µM | EC50 ([3]; KASUMI-1 cell line, read-out: Haematopoietic & Lymphoid tumors, EC50 (μM) KASUMI-1): 0.842 µM | EC50 ([3]; Loucy cell line, read-out: Haematopoietic & Lymphoid tumors, EC50 (μM) Loucy): 0.78 µM | EC50 ([3]; MOLT-4 cell line, read-out: Haematopoietic & Lymphoid tumors, EC50 (μM) MOLT-4): 0.965 µM | EC50 ([3]; TF-1 cell line, read-out: Haematopoietic & Lymphoid tumors, EC50 (μM) TF-1): 1.31 µM | EC50 ([3]; TOLEDO cell line, read-out: Haematopoietic & Lymphoid tumors, EC50 (μM) TOLEDO): 0.3 µM | EC50 ([4]; DU-145, read-out: Prostate cancer EC50 Du-145): 1040 nM | EC50 ([4]; PC-3, PC3 cell line, inhibition of cancer cell proliferation, read-out: Prostate cancer EC50 PC3): 848 nM | EC50 ([4]; 22Rv1 cell line, inhibition of cancer cell proliferation, read-out: Prostate cancer EC50 22Rv1): 847 nM | EC50 ([4]; LNCap clone FGC cell line, inhibition of cancer cell proliferation, read-out: Prostate cancer EC50 LNCap clone FGC): 1540 nM | EC50 ([4]; VCaP (Sigma) cell line, inhibition of cancer cell proliferation, read-out: Prostate cancer EC50 VCaP (Sigma)): 3500 nM | EC50 ([5]; A-427, A427 cell line, read-out: Lung cancer, EC50 (μM) A427): 0.856 µM | EC50 ([5]; HCC78, HCC-78 cell line, read-out: Lung cancer, EC50 (μM) HCC-78): 1.47 µM | EC50 ([5]; NCI-H460 cell line, read-out: Lung cancer, EC50 (μM) NCI-H460): 1.26 µM | EC50 ([5]; NCI-H522 cell line, read-out: Lung cancer, EC50 (μM) NCI-H522): 0.553 µM | EC50 ([6]; PA-1, PA1 cell line, read-out: Ovarian cancer, EC50 (μM) PA1): 0.643 µM | EC50 ([6]; TOV112D, TOV-112D cell line, read-out: Ovarian cancer, EC50 (μM) TOV-112D): 0.61 µM | EC50 ([6]; OV-90 cell line, read-out: Ovarian cancer, EC50 (μM) OV-90): 1.64 µM | EC50 ([6]; OVCAR-3 cell line, read-out: Ovarian cancer, EC50 (μM) OVCAR-3): 0.446 µM | EC50 ([7]; BXPC-3, BxPC3 cell line, read-out: Pancreatic cancer, EC50 BxPC3): 2070 nM | EC50 ([7]; CAPAN-1, Capan1 cell line, read-out: Pancreatic cancer, EC50 Capan1): 1120 nM | EC50 ([7]; Capan-2, Capan2 cell line, read-out: Pancreatic cancer, EC50 Capan2): 1290 nM | EC50 ([7]; MIA PaCa-2 cell line, read-out: Pancreatic cancer, EC50 MIA PaCa-2): 461 nM | EC50 ([7]; PANC 05.04 cell line, read-out: Pancreatic cancer, EC50 PANC 05.04): 1190 nM | EC50 ([7]; PANC-1 cell line, read-out: Pancreatic cancer, EC50 PANC-1): 1830 nM | EC50 ([7]; UPAFII cell line, read-out: Pancreatic cancer, EC50 UPAFII): 593 nM | EC50 [8]: 2.9 nM | EC50 ([9]; HCT-116, HCT116 cell line, read-out: Colorectal cancer, EC50 (μM) HCT116): 0.396 µM | EC50 ([9]; HT-29, HT29 cell line, read-out: Colorectal cancer, EC50 (μM) HT29): 1.13 µM | EC50 ([9]; SW-620, SW620 cell line, read-out: Colorectal cancer, EC50 (μM) SW620): 0.26 µM | EC50 ([9]; DLD-1 cell line, read-out: Colorectal cancer, EC50 (μM) DLD-1): 0.658 µM | EC50 ([9]; SW48 cell line, read-out: Colorectal cancer, EC50 (μM) SW48): 0.185 µM | EC50 ([9]; SW480 cell line, read-out: Colorectal cancer, EC50 (μM) SW480): 0.551 µM | EC50 ([10]; SNU-398, SNU398 cell line, read-out: Liver cancer, EC50 SNU398): 234 nM | EC50 ([10]; HEPG2 cell line, read-out: Liver cancer, EC50 HEPG2): 734 nM | EC50 ([10]; PLC/PRF/5 cell line, read-out: Liver cancer, EC50 PLC/PRF/5): 1930 nM | EC50 [11]: 1130 nM | EC50 [12]: 1100 nM | EC50 [13]: 1220 nM | EC50 [14]: 1240 nM | EC50 [15]: 2560 nM | EC50 [16]: 1430 nM | EC50 [17]: 640 nM
SMILES: CN1CCN(c2cc(C(=O)Nc3cc4cc(-c5nnc(N(C)C)s5)ccc4cn3)ccn2)CC1 [Compound 84]
EC50 [1]: 1040 nM
